From publication PMC11288129, “Diversely evolved xibalbin variants from remipede venom inhibit potassium channels and activate PKA-II and Erk1/2 signaling” (BMC Biology, 2024)
“Also recorded” adds a separate entry of the source. Positions of bridges follow the written chain, without caps; N, C: chain ends. No end group written: not given here.

Test system: PKA-II (phospho-RIIα/β) in rat DRG neurons
Experiment: High-content imaging of PKA-II activity (pRII) in DRG sensory neurons
Type: cell-based
Settings: for PKA-II activation: 5 and 30 min, 0.005 to 0.8 µg/µL; for pRII response by neuron size: xibalbins 0.8 µg/µL; for increase in phospho-PKA-II intensity: 5 min
Experimental: To gauge sensory neuron activity in response to various activating stimuli, including electrical activity, phosphorylation state detection of protein kinase A type II (PKA-II) and MAP kinase Erk1/2 can act as surrogate measurements. Consequently, we tested for increased phosphorylation states in a concentration-dependent manner following exposure to xibalbins. Dissociated DRG neurons were cultured overnight and then exposed to increasing concentrations of the corresponding xibalbins for 5 min and 30 min, respectively. As a positive control, forskolin (Fsk) was also used to induce cAMP synthesis. The activity of PKA-II was monitored by antibodies directed against the phosphorylation site of the inhibitory regulatory subunits RIIα/β, which is exclusively accessible when the catalytic kinase domain is released during kinase activation. For measuring Erk1/2 activity, phospho-sites on Erk1/2 (T202/Y204) were monitored through immunofluorescence, as these sites are phosphorylated during activation. Cellular images were captured using HCI microscopy (Fig. 8A), and the average intensity of each phospho-antibody was quantified (Fig. 8B).
Fig. 8 A Representative images of rat DRG neurons stimulated with PBS (Ctrl) and xib1b (0.8 µg/µL). Cells were stained for UCHL1, pRII, pERK1/2, and Hoechst followed by fixation and staining with standard immunocytochemistry protocols. Green-encircled neurons indicate automatically selected objects. Scale bar: 100 µm. B Mean intensities of UCHL1, pRII, and pERK1/2. The same UCHL1 intensities were observed among tested groups. Forskolin (Fsk), an activator of adenylyl cyclase, was used as a positive control. Fsk at 6 µM concentration induced an increase in pRII and pERK1/2 intensities at 5 and 30 min. Number of analyzed cells per replica: 750 ± 200. Eight independent replicas. C–F Concentration responses of xibalbin toxins (0.005 to 0.8 µg/µL) and mean intensities of pRII and pERK1/2 at 5 min and 30 min. G–H Size versus pRII and pErk1/2 intensities of cells treated with 0.8 µg/µL of xib1 and xib13. Small-sized cells were responding to xibalbins. Statistical significance was assessed using one-way ANOVA with Dunnett’s post hoc test. Data represent mean ± S.E.M (standard error of the mean), n = 4, see “Methods” for details and Additional File 6: Table S2 for individual data values
Male Sprague Dawley rats (250–400 g, 8–16 weeks old) were obtained from Envigo. Rats were kept in 12 h of light/darkness cycles. All experiments were performed in accordance with the German animal welfare law with permission of the District Government for Nature and Environment, NRW (84–02.05.20.13.045, 4.18.003). Rats were scarified by slow inhalation of CO2 which was followed by decapitation. DRGs were extracted from rats, deheated, pooled, and incubated in Neurobasal A/B27 medium (Invitrogen, #12349–015) supplemented with B-27 (Invitrogen #17504), L-glutamine 1:400, L-glutamate 1:270.3, and penicillin/streptomycin 1:100 containing 0.2 U/mL collagenase P (collagenase P, Roche, #1213857) and incubated for 1 h at 37 °C, 5% CO2. DRGs were dissociated with pasteur pipettes and axon stumps were separated by BSA (Sigma-Aldrich, # A2153-100G) gradient centrifugation (14% BSA, 120 g, 8 min). Cells were resuspended in NBA medium, plated in 96-well imaging plate (Greiner BioOne Sensoplate, Black, #655896) precoated with poly-L-ornithine hydrochloride (0.1 mg/ml Sigma, #P2533)/laminin (5 µg/ml Invitrogen, #23017–015), and incubated overnight at 37 °C, 5% CO2.
DRGs were stimulated after overnight incubation. Compounds were prepared as tenfold concentrated stock solutions, diluted in PBS (PAA, cat# H15-002), in v-bottom plates; 50 µL media from culture wells were mixed with the […] stock solutions, and 50 µL added back to the respective wells. Stimulation was performed with automated multichannel pipette and cells were kept in heated block during the stimulation. […]

Sequence	PKA-II activation	pRII response by neuron size	increase in phospho-PKA-II intensity (0.4 µg/µL (74 µM), q = 3.29)	increase in phospho-PKA-II intensity (0.8 µg/µL (148 µM), q = 4.17)	change in phospho-PKA-II intensity (30 min)
RLFCIRHHKYCGHRPKRCCSGLFCRCNTFGTNCRCQSKGALGKLI (disulfide 4-19, 11-24, 18-35, 26-33) [xib1]	increase PKA-II and Erk1/2 sensitization signaling; also recorded: increased PKA-II and pErk1/2 activity	increased phosphorylation signals in both small-sized and large-sized sensory neurons			
KRSCIRRFGRCDHRPNDCCYNSSCRCNLWGSNCRCQRMGLFQKWGK (disulfide 4-19, 11-24, 18-35, 26-33) [xib13]	increase PKA-II and Erk1/2 sensitization signaling; also recorded: increased PKA-II and pErk1/2 activity	increased phosphorylation signals in both small-sized and large-sized sensory neurons	up to 1.21 fold	up to 1.21 fold	No change
